Experimental data: article PMC6214487 (Journal of drug design and research, 2018)
Read-outs that look alike come from different tables or passages of the source.

What was measured:
[1] = tested on: HIV-1 isolates from subtypes A, B, and C; assay: Replication in PBMCs, summary over the three isolates tested; type: cell-based; conditions: read-out: Median IC50
[2] = Toxicity to PBMCs, MTS assay; conditions: human, primary peripheral blood mononuclear cells (PBMCs)
PBMCs = assay: Toxicity to PBMCs, MTS assay; conditions: for Therapeutic Index (CC50/IC50): calculated using the median IC50 across all three isolates
[3] = tested on: HIV-1 pseudovirus CA P90A; assay: organism not typed; type: cell-based; conditions: for IC50: read-out: IC50, CA P90A virus
purified recombinant RT = purified recombinant RT (Human immunodeficiency virus type 1 group M subtype B, UniProt P04585); assay: Colorimetric reverse transcriptase assay kit; conditions: CX06 15 μM, PF-74 1.5 μM, TMC278 1 nM, relative to DMSO
[4] = tested on: HIV-1 pseudovirus CA K70A; assay: organism not typed; type: cell-based; conditions: for IC50: read-out: IC50, CA K70A virus
[5] = tested on: HIV-1 pseudovirus CA Q63A; assay: organism not typed; type: cell-based; conditions: for IC50: read-out: IC50, CA Q63A virus
[6] = tested on: HIV-1 pseudovirus CA wild-type; assay: organism not typed; type: cell-based; conditions: for IC50: read-out: IC50, Wild-type virus
[7] = tested on: HIV-1 pseudovirus CA N74D; assay: organism not typed; type: cell-based; conditions: for IC50: read-out: IC50, CA N74D virus
[8] = tested on: HIV-1JR-FL envelope pseudotyped virus; assay: Single-round infection assay, early-stage events; conditions: compound present at infection of target cells, luciferase
HIV-1 JR-CSF = assay: Replication of primary isolate in PBMCs; type: cell-based; conditions: read-out: IC50 HIV-1 JR-CSF Clade B; primary human PBMCs
HIV-1 92RW025 = assay: Replication of primary isolate in PBMCs; type: cell-based; conditions: read-out: IC50 HIV-1 92RW025 Clade A; primary human PBMCs
[9] = tested on: VSV-G pseudotyped HIV-1 in TZM-bl cells; type: cell-based
HIV-1 93MW965 = assay: Replication of primary isolate in PBMCs; type: cell-based; conditions: read-out: IC50 HIV-1 93MW965 Clade C; primary human PBMCs
[10] = tested on: HIV-1 pseudovirus CA N57A; assay: organism not typed; type: cell-based; conditions: for IC50: read-out: IC50, CA N57A virus
[11] = biological target: HIV-1 NL4-3 disulfide stabilized CA hexamer (HIV-1 NL4-3); assay: SPR
U87.CD4. cells = type: cell-based, human
293T cells = type: cell-based, human
[12] = tested on: HIV-1JR-FL Envpseudotyped viruses; assay: Viral production by p24 quantitation; type: cell-based; conditions: 20 μM, relative to DMSO
HIV-1 CA = HIV-1 CA (Human immunodeficiency virus type 1 group M subtype B, UniProt P12493); conditions: capsid 30 μM, compound 50 μM, compared to DMSO
[13] = tested on: VSV-pseudotyped HIV-1 virus; type: cell-based
[14] = tested on: AMLV Envpseudotyped HIV-1; type: cell-based; conditions: single round infection assay
[15] = tested on: HIV-1JR-FLEnv infected U87.CD4.CCR5 cells; assay: Q-PCR analysis of viral DNA; type: cell-based; conditions: CX06 15 μM
[16] = Human immunodeficiency virus 1, PBMC

CC(C)c1nc2c(n1CC(=O)NC(Cc1ccccc1)C(=O)N(C)c1ccccc1)CCCC2 (stereo not shown) [CX03, 2-(2-(2-isopropyl-4,5,6,7-tetrahydro-1H-benzo[d]imidazol-1-yl)acetamido)-N-methyl-N,3-diphenylpropanamide]
IC50 [1, 16]: 5.9 ± 0.9 µM | CC50 [2]: > 100 µM | Therapeutic Index (CC50/IC50) (PBMCs): >16.9

Cc1[nH]c2ccccc2c1CC(=O)N[C@@H](Cc1ccccc1)C(=O)N(C)c1ccccc1 [PF-74, reference compound]
IC50 ([3]; single-round infection): 0.21 ± 0.04 µM | Effect on RT activity in vitro (purified recombinant RT): no effect on RT activity | IC50 ([1]; over the three isolates tested, PBMCs): 0.9 ± 0.5 µM | IC50 ([4]; single-round infection): 0.25 ± 0.08 µM | IC50 ([5]; single-round infection): 0.4 ± 0.05 µM | IC50 ([6]; single-round infection): 0.22 ± 0.05 µM | IC50 ([7]; single-round infection): 0.5 ± 0.1 µM | Effect on early-stage events, infectivity of target cells [8]: dual-stage inhibition profile | IC50 (HIV-1 JR-CSF): 0.6 ± 0.2 µM | IC50 (HIV-1 92RW025): 1.5 ± 0.9 µM | CC50 (PBMCs; MTS assay, PBMCs): 90.5 ± 5.9 µM | Nuclear import of INsfGFP complexes [9]: efficiently inhibited the appearance of INsfGFP spots in the nucleus | IC50 (HIV-1 93MW965): 0.6 ± 0.1 µM | IC50 ([10]; single-round infection): 0.25 ± 0.04 µM

CN(C(=O)C(Cc1ccccc1)NC(=O)Cc1cnn(C(F)F)c1)c1ccccc1 (stereo not shown) [CX04, 2-(2-(1-(difluoromethyl)-1H-pyrazol-4-yl)acetamido)-N-methyl-N,3-diphenylpropanamide]
IC50 [1, 16]: 17.1 ± 2.7 µM | CC50 [2]: > 100 µM | Therapeutic Index (CC50/IC50) (PBMCs): >5.84

CN(C(=O)C(Cc1ccccc1)NC(=O)Cc1cnn(C)c1C(F)(F)F)c1ccccc1 (stereo not shown) [CX05, N-methyl-2-(2-(1-methyl-5-(trifluoromethyl)-1H-pyrazol-4-yl)acetamido)-N,3-diphenylpropanamide]
IC50 [1, 16]: 18 ± 4.6 µM | CC50 [2]: > 100 µM | Therapeutic Index (CC50/IC50) (PBMCs): >5.58

NUP153 1407-1423 peptide (from UniProt P49790 1407-1423)
Kd [11]: 202 µM

Cc1ccnc2c1NC(=O)c1cccnc1N2C1CC1 [Nevirapine]
Nuclear import of INsfGFP complexes [9]: without effect

CCn1ncc(CC(=O)NC(Cc2ccccc2)C(=O)N(C)c2ccccc2)c1C(F)F (stereo not shown) [CX06, 2-(2-(5-(difluoromethyl)-1-ethyl-1H-pyrazol-4-yl)acetamido)-N-methyl-N,3-diphenylpropanamide]
Fold increase, CA P90A virus ([3]; IC50 relative to wild-type): 1 | IC50 [3]: 3.1 ± 0.5 µM | Effect on RT activity in vitro (purified recombinant RT): no effect on RT activity | IC50 [1, 16]: 5.9 ± 1 µM | Cytotoxicity (U87.CD4. cells): not cytotoxic | Fold increase, CA K70A virus ([4]; IC50 relative to wild-type): 1.03 | IC50 [4]: 3.2 ± 0.3 µM | Fold increase, CA Q63A virus ([5]; IC50 relative to wild-type): 6.9 | IC50 [5]: 21.4 ± 1.4 µM | Fold increase, Wild-type virus ([6]; IC50 relative to wild-type): 1 | IC50 [6]: 3.1 ± 0.5 µM | Cytotoxicity (293T cells): not cytotoxic | Viral production, p24 content [12]: decreasing the amount of virus released from the cells | Effect on capsid assembly, turbidity at 350 nm (HIV-1 CA): reduced the multimerization of HIV-1 CA | Fold increase, CA N74D virus ([7]; IC50 relative to wild-type): 0.8 | IC50 [7]: 2.4 ± 0.7 µM | Time of addition at which compound is effective [13]: ≤ 6 hours post-infection | CC50 [2]: > 100 µM | Therapeutic Index (CC50/IC50) (PBMCs): >17.0 | Inhibition of AMLV Env pseudotyped HIV-1 infection [14]: almost identical potency as when the HIV-1JR-FLEnv was used | Nuclear import of INsfGFP complexes [9]: efficiently inhibited the appearance of INsfGFP spots in the nucleus | 2-LTR circles ([15]; 24 h): significantly affected | Early RT products (RU5) ([15]; 48 h): slightly diminished | Integrated pro-virus (Alu-PCR) ([15]; 48 h): significantly affected | Late RT products (U5Ψ) ([15]; 48 h): significantly affected | Fold increase, CA N57A virus ([10]; IC50 relative to wild-type): 1.4 | IC50 [10]: 4.3 ± 0.5 µM
